Reference: ChEMBL document CHEMBL5233249, “Recent advancements in the development of heterocyclic anti-inflammatory agents” (Eur J Med Chem, 2020)

What was measured:
RAW264.7 [1] = assay: Anti-inflammatory activity in mouse RAW264.7 cells assessed as inhibition of LPS-induced NO production measured after 24 hrs; assay type: functional, cell-based; details: RAW264.7, 24 h
[2] = molecular target: T1, Prostaglandin G/H synthase 1 (Ovis aries, UniProt P05979); assay: Inhibition of ovine COX-1 by EIA method
T1 sequence (P05979 whole entry): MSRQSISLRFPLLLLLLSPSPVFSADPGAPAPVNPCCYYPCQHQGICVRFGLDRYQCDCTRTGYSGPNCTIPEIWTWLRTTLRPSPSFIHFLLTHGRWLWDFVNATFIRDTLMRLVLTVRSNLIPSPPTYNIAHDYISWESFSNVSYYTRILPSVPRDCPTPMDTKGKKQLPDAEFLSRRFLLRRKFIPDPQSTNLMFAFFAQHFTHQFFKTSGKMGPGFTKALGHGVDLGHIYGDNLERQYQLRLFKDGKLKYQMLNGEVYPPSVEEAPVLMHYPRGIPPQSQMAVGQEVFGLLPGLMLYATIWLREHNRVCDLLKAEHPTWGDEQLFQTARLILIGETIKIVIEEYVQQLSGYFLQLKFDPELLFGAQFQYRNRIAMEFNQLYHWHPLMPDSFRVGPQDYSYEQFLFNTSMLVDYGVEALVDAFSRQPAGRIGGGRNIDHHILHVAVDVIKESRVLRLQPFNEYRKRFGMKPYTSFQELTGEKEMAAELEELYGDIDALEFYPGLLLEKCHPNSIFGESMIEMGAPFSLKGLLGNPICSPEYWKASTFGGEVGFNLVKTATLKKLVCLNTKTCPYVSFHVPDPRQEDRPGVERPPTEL

Rattus norvegicus [3] = assay: Anti-inflammatory activity against carrageenan-induced Albino Wistar rat paw edema model assessed as inhibition of rat paw edema at 50 mg/kg, po after 3 hrs relative to control; assay type: functional; parameters: scale not given: the % may be the effect or the level left
Rattus norvegicus [4] = assay: Anti-ulcerative activity in Carrageenan-induced Sprague-Dawley rat ulcer model assessed as inhibition of ulcer index at 10 mg/kg,po; assay type: functional
[5] = molecular target: T2, Prostaglandin G/H synthase 2 (Homo sapiens) (UniProt P35354); assay: Inhibition of COX-2 (unknown origin) assessed as inhibition at 100 mg/kg relative to control; assay type: organism-based
T2 sequence (whole entry): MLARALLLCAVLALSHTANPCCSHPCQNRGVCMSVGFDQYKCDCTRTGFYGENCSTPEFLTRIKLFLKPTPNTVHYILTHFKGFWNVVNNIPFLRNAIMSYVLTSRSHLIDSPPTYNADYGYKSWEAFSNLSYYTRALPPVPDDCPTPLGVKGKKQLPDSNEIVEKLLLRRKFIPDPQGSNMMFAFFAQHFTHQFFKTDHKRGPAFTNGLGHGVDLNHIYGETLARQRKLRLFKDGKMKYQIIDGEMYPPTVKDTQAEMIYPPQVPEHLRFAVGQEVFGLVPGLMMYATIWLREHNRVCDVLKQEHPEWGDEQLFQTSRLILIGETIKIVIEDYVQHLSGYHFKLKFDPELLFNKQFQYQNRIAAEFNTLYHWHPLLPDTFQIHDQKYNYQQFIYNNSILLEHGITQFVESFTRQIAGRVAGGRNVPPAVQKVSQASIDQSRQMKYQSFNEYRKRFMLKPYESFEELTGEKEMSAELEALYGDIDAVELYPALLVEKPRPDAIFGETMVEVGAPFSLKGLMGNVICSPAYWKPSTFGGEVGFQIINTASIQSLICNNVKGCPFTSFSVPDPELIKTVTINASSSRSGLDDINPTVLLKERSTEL

Rattus norvegicus [6] = assay: Anti-inflammatory activity against Carrageenan-induced paw edema in PO dosed Wistar albino rat assessed as inhibition of edema measured after 1 hr relative to control; assay type: functional; parameters: scale not given: the % may be the effect or the level left
Rattus norvegicus [7] = assay: Anti-inflammatory activity against Carrageenan-induced paw edema in PO dosed Wistar albino rat assessed as inhibition of edema measured after 2 hr relative to control; assay type: functional; parameters: scale not given: the % may be the effect or the level left
Rattus norvegicus [8] = assay: Anti-inflammatory activity against Carrageenan-induced paw edema in PO dosed Wistar albino rat assessed as inhibition of edema measured after 4 hr relative to control; assay type: functional; parameters: scale not given: the % may be the effect or the level left
[9] = molecular target: T3, Polyunsaturated fatty acid 5-lipoxygenase (Homo sapiens, UniProt P09917); assay: Inhibition of 5-LOX (unknown origin) after 5 mins by colorimetric method
T3 sequence (P09917 whole entry): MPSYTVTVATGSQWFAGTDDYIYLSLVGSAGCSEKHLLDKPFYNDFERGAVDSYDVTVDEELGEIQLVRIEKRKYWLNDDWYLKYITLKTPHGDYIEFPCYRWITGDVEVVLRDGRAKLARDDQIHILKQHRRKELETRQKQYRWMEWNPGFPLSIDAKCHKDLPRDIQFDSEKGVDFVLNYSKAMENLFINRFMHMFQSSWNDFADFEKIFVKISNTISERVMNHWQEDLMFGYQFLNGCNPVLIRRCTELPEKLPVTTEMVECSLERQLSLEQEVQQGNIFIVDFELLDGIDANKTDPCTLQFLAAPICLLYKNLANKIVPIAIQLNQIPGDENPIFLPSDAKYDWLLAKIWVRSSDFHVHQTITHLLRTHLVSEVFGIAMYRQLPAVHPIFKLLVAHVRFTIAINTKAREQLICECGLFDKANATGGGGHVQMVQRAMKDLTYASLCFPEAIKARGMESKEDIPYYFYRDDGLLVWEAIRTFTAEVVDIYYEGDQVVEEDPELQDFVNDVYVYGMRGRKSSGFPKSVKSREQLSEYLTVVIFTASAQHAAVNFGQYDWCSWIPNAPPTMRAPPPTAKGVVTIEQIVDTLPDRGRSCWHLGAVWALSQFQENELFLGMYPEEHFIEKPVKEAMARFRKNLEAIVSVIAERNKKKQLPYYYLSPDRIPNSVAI

Rattus norvegicus [10] = assay: Anti-inflammatory activity against Carrageenan-induced paw edema in PO dosed Wistar albino rat assessed as reduction in hind paw edema volume at 20 mg/kg relative to control; assay type: functional; parameters: scale not given: the % may be the effect or the level left
[11] = Anti-inflammatory activity assessed as protein denaturation using bovine serum albumin relative to control; assay type: functional
Rattus norvegicus [12] = assay: Anti-inflammatory activity in Carageenan-induced foot paw edema in Swiss albino rat assessed as reduction in volume of paw edema measured after 1 hr relative to control; assay type: functional; parameters: scale not given: the % may be the effect or the level left
Rattus norvegicus [13] = assay: Anti-inflammatory activity in Carageenan-induced foot paw edema in Swiss albino rat assessed as reduction in volume of paw edema measured after 2 hr relative to control; assay type: functional; parameters: scale not given: the % may be the effect or the level left
Rattus norvegicus [14] = assay: Anti-inflammatory activity in Carageenan-induced foot paw edema in Swiss albino rat assessed as reduction in volume of paw edema measured after 4 hr relative to control; assay type: functional; parameters: scale not given: the % may be the effect or the level left
Rattus norvegicus [15] = assay: Anti-inflammatory activity in Carageenan-induced foot paw edema in Swiss albino rat assessed as reduction in volume of paw edema measured after 6 hr relative to control; assay type: functional; parameters: scale not given: the % may be the effect or the level left
[16] = Anti-inflammatory activity assessed as heat -induced protein denaturation using hen egg albumin at 31.25 ug/ml relative to control; assay type: functional; details: dose 31.25 µg/ml
RAW264.7 [17] = assay: Anti-inflammatory activity in mouse RAW264.7 cells assessed as inhibition of LPS-induced NO production in macrophages; assay type: functional, cell-based
[18] = Selectivity index, ratio of IC50 for ovine COX1 to IC50 for recombinant human COX2
Rattus norvegicus [19] = assay: Anti-inflammatory activity against formalin-induced foot paw edema in PO dosed rat at 10 mg/kg assessed as inhibition of edema measured after 5 hr relative to control; assay type: functional; parameters: scale not given: the % may be the effect or the level left
Rattus norvegicus [20] = assay: Anti-ulcerative activity in aspirin induced Wistar rat ulcer model assessed as inhibition of ulcer index at 20 mg/kg,po; assay type: functional
[21] = Antioxidant activity assessed as DPPH radical scavenging activity incubated for 20 mins by spectrophotometric analysis; assay type: functional

Compound C[C@]12CC[C@H]3[C@@H](CC=C4C[C@@H](O)CC[C@@]43C)[C@@H]1CC[C@@H]2C1=NN(C(N)=S)C(c2cccc(F)c2)C1 (some centres not stated) has an IC50 (RAW264.7 [1]) of 860 nM.

Work on O=C1NC(=O)C(=NNc2cccc(-c3nc4ccccc4[nH]3)c2)C(=O)N1 yielded an IC50 [2] of 2760 nM.

In the case of CS(=O)(=O)c1ccc(-n2cc(/C=N/Nc3ccc(S(N)(=O)=O)cc3)c(-c3ccc(Br)cc3)n2)cc1, the Activity (Rattus norvegicus [3]) is reported as 80% and the UI (Rattus norvegicus [4]) is reported as 3.77.

CC(=O)Oc1ccccc1C(=O)O gave an inhibition [5] of 11.1%.

With CC(=O)Nc1ccc(OC(=O)CCCC(=O)/C=C/c2cn(-c3ccccc3)nc2-c2ccccc2)cc1 the Activity (Rattus norvegicus [6]) was 20%, the Activity (Rattus norvegicus [7]) was 15.56% and the Activity (Rattus norvegicus [8]) was 28.57%.

With N=C1/C(=N\Nc2ccc(Cl)cc2)C(N)=NN1c1ccc(S(N)(=O)=O)cc1 the IC50 [9] was 2310 nM.

Compound O=C1/C(=N\Nc2ccccc2Br)C(Nc2ccccc2F)=NN1CNc1ccccc1 has an Activity (Rattus norvegicus [10]) of 64%.

For O=C(O)Cc1ccccc1Nc1c(Cl)cccc1Cl, the Activity [11] was 84.1%.

Work on CCCC1Nc2cc(C(=O)N/N=C/c3ccc(Cl)cc3Cl)cc(C)c2N1 (configuration not stated) yielded an Activity (Rattus norvegicus [12]) of 45.5%, an Activity (Rattus norvegicus [13]) of 59.38% and an Activity (Rattus norvegicus [14]) of 81.4%. It also gave an Activity (Rattus norvegicus [15]) of 90.3%.

With Cc1c(/N=C/c2c(OCc3cc(=O)oc4cc(O)ccc34)ccc3ccccc23)c(=O)n(-c2ccccc2)n1C the Activity [16] was 67.3%.

C=CC1=CN=CC2C(=O)N3CCc4c([nH]c5ccccc45)C3=CC12 (configuration not stated) gave an IC50 (RAW264.7 [17]) of 1280 nM.

For COc1ccc(N2C(=O)/C(=C/c3cn(-c4ccc(S(C)(=O)=O)cc4)nc3-c3cccc(Cl)c3)NC2=S)cc1, the Selectivity Index [18] was 9.32, the Activity (Rattus norvegicus [19]) was 60% and the UI (Rattus norvegicus [20]) was 2.64.

Compound COc1ccc2oc(=O)cc(COc3ccc4ccccc4c3/C=N/c3c(C)n(C)n(-c4ccccc4)c3=O)c2c1 has an Activity [16] of 53.6%.

Compound Cc1ccc(-c2nn(-c3ccccc3)cc2C(O)C(F)(F)C(=O)NN)cc1 (configuration not stated) has an inhibition [5] of 33.7% and an Activity [21] of 70.9%.

Work on C=CC(CO)[C@@H]1C[C@H]2c3[nH]c4ccccc4c3CCN2C(=O)[C@H]1CO (some centres not stated) yielded an IC50 (RAW264.7 [17]) of 1180 nM.

For O=C(O)C(F)(F)C(O)c1cn(-c2ccccc2)nc1-c1ccc(Cl)cc1Cl (configuration not stated), the inhibition [5] was 38.6% and the Activity [21] was 76%.

Compound Cc1cc(-c2ccccc2)n(-c2nc3c(cnn3-c3ccccc3)c(=O)n2-c2ccccc2)n1 has a Selectivity Index [18] of 5.44.
